# Results published in paper PMC9736275 (International Journal of Molecular Sciences, 2022).
# Molecular target: T1, ATA-Gze (Fusarium graminearum, UniProt I1RDQ2)
# T1 construct: gene FGRAMPH1_01T04291
# T1 sequence (I1RDQ2 1-325): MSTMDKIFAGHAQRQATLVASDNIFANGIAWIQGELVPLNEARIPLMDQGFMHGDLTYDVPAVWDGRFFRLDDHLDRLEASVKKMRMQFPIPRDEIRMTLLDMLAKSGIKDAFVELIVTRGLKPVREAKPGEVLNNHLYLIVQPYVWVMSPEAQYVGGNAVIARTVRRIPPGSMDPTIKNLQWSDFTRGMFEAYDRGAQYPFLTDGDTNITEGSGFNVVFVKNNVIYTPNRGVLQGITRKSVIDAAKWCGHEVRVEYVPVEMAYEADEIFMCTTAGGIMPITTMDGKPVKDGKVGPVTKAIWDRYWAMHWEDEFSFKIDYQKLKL
smiles,measurement,value
C[C@@H](N)c1ccccc1 [(R)-1-phenylethylamine],Km,The kinetic parameters are shown in Table S3 and Figure S1
